Test results reported in ChEMBL document CHEMBL1201862, “PubChem BioAssay data set” (2004).
Structures can show the parent of a compound that is named as a salt. Calls of active or inactive are those of the source.

Legend:
Paired box protein Pax-8 = Paired box protein Pax-8 (Homo sapiens, UniProt Q06710); test: inhibitors of PAX8-driven TPO luciferase reporter, dose response, RMG-I cells, cherry-pick (AID 687027); format: functional, cell-based;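 further: luciferase reporter driven by Pax8 target thyroperoxidase promoter measured by SteadyGlo luminescence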
[1] = cytotoxicity in OVCAR8 ovarian cancer cells, dose response, PAX8 project, cell-based, plate reader, dry powder samples (AID 743197); format: functional; conditions: OVCAR-8
Leucine aminopeptidase = target: T1, Leucine aminopeptidase (Plasmodium falciparum 3D7, UniProt Q8IL11); test: P. falciparum M17LAP inhibitors, primary screen, biochemical, fluorogenic H-Leu-NHMec substrate, 1536-well (AID 1619); format: functional
T1 sequence (Q8IL11 whole entry): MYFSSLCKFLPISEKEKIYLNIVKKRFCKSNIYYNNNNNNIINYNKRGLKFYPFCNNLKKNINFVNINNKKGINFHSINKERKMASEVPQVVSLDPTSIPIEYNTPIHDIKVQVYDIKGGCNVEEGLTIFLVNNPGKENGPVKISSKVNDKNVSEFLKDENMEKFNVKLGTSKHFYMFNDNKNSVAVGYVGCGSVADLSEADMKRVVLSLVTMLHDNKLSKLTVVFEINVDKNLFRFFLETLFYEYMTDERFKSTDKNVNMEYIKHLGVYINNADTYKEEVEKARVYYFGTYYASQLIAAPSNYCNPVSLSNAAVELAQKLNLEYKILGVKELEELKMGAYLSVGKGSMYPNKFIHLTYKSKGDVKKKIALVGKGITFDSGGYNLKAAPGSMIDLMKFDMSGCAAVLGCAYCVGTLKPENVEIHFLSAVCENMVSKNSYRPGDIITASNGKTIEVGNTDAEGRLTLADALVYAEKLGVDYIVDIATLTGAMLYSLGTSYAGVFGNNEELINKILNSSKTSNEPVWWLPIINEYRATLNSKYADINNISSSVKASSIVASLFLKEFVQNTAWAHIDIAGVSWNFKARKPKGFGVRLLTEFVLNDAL

[2] = target: T2, Long-chain-fatty-acid--AMP ligase FadD28 (Mycobacterium tuberculosis, UniProt P9WQ59); test: Fluorescence polarization aasay to screen for inhibitors that compete for the binding of FadD28 to a bisubstrate Measured in Biochemical System Using Plate Reader - 2147-01_Inhibitor_Dose_CherryPick_Activity.; format: functional, Mycobacterium tuberculosis H37Rv
T2 sequence (P9WQ59 whole entry): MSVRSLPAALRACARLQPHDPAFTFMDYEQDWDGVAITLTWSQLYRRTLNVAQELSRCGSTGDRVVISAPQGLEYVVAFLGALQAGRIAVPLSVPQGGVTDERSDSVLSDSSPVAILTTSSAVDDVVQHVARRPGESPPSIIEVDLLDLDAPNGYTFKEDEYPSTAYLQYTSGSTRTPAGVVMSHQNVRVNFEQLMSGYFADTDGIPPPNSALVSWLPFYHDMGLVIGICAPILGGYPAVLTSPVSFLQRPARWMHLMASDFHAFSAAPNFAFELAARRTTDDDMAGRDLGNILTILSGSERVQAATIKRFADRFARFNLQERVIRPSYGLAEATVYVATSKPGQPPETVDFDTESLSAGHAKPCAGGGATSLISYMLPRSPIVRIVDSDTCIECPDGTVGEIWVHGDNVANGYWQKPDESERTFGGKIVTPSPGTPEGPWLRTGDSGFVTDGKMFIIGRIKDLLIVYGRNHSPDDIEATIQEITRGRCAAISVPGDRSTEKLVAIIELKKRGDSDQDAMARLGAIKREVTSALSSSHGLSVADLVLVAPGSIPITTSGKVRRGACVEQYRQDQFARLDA

[3] = target: T3, Carboxy-terminal domain RNA polymerase II polypeptide A small phosphatase 1 (Homo sapiens, UniProt Q9GZU7); test: inhibitors of CTDSP1, concentration-response testing, biochemical assay, absorbance-based, actives from ultra-high-throughput screening (AID 540297); format: functional
T3 sequence (Q9GZU7 whole entry): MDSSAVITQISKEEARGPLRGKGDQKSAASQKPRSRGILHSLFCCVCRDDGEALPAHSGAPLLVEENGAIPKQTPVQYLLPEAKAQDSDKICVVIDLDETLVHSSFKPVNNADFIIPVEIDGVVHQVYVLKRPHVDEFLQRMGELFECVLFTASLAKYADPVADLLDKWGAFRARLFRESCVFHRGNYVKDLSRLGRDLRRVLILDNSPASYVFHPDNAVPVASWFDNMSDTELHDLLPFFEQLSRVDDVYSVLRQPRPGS

[4] = target: T4, Polyadenylate-binding protein 1 (Homo sapiens, UniProt P11940); test: PABP1 MLLE–PAM2 binding inhibitor potency, dose response, biochemical, fluorescence polarization, FITC-PAM2 peptide (AID 602259); format: functional; conditions: read-out: IC50_Mean
[5] = target: T4, Polyadenylate-binding protein 1; test: PABP1 MLLE–PAM2 interaction inhibitors, dose response, miRNA deadenylation inhibitor project, biochemical, fluorescence polarization, Cy5-PAM2 peptide, secondary (AID 602260); format: functional; conditions: read-out: IC50_Mean
[6] = target: T5, Sentrin-specific protease 1 (Homo sapiens, UniProt Q9P0U3); test: Dose response confirmation of small molecule inhibitors of the catalytic domain of the SUMO protease, SENP1 in a FRET assay.; format: functional; conditions: read-out: IC50_Mean
T5 sequence (Q9P0U3 whole entry): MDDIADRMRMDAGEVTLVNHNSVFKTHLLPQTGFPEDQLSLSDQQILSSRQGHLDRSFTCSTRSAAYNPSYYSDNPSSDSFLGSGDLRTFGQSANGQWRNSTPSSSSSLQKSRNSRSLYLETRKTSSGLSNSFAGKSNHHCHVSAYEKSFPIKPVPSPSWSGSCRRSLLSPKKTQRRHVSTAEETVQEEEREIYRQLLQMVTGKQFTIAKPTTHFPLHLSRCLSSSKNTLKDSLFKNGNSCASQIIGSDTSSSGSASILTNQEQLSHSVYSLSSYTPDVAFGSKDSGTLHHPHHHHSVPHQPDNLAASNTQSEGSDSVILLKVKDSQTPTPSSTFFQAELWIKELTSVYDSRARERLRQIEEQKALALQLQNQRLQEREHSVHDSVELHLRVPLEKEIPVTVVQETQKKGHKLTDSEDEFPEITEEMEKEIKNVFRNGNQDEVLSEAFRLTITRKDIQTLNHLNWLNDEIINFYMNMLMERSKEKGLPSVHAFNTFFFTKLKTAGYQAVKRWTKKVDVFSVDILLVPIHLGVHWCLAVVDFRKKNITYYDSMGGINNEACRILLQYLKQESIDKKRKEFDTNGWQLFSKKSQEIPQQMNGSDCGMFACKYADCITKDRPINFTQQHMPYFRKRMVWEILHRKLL

[7] = target: T5, Sentrin-specific protease 1; test: potency of human SENP1 inhibitors, dose response, biochemical, kinetic FRET (AID 651697); format: functional; conditions: read-out: IC50_Mean
[8] = Luminescence Cell-Based Dose Retest to Confirm Inhibitors of Cancer Stem Cells. [Related pubchem assays (depositor defined):AID2717, AID2721]; format: functional; conditions: Homo sapiens
[9] = HEp-2 cell cytotoxicity, dose response, cytotoxicity control for RSV inhibitor project, HTS (AID 2410); format: functional; conditions: human respiratory syncytial virus

T4 sequence (P11940 whole entry): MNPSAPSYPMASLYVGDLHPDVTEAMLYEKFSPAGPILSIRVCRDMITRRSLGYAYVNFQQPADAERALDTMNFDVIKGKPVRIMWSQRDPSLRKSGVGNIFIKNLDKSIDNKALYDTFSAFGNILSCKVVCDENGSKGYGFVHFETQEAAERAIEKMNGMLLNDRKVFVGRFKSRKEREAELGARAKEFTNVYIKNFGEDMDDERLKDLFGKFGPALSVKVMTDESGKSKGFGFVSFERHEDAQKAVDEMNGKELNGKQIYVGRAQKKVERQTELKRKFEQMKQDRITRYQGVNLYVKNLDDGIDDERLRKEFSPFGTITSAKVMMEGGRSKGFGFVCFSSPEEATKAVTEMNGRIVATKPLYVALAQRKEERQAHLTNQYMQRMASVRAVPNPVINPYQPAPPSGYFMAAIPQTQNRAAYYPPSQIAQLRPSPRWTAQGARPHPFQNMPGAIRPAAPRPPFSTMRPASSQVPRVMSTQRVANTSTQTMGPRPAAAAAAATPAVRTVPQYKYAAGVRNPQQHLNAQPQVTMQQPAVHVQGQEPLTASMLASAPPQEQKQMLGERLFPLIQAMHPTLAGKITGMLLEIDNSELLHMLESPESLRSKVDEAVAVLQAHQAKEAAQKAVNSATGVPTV
Sequence of Paired box protein Pax-8 (Q06710 whole entry): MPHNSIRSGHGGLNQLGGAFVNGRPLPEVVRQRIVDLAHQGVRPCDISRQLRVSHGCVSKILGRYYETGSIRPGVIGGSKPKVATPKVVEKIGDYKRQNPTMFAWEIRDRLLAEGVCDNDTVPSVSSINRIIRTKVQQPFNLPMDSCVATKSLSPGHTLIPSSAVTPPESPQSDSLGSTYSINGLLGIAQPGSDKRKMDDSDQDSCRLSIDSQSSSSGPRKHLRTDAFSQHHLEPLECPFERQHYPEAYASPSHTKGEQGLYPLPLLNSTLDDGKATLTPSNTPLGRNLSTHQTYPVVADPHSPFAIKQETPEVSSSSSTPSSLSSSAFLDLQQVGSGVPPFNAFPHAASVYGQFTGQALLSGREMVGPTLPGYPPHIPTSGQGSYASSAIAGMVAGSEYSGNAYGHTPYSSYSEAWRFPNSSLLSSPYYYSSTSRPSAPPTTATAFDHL

C[C@@H]1CCCCO[C@@H](CN(C)Cc2ccc(Cl)c(Cl)c2)[C@H](C)CN([C@H](C)CO)C(=O)c2cc(NC(=O)Nc3ccc(F)cc3)ccc2O1
AC50 (Paired box protein Pax-8): 5.06 µM (active)
AC50 [1]: > 70 µM (inactive)

CCOc1cc(/C=C2\S/C(=N\c3ccccc3)N(c3ccccc3)C2=O)ccc1OCC(=O)O
IC50 (Leucine aminopeptidase): 31.3 µM (active)

COc1ccc(/C=C2\CCCc3c2nc2ccc(C)cc2c3C(=O)O)cc1O
AC50 [2]: 79.3 µM (active)

O=C(O)c1ccc(/C=N/NC(=O)c2cc(-c3ccc4c5c(cccc35)CC4)[nH]n2)cc1
IC50 (Leucine aminopeptidase): 26.8 µM (active)
IC50 [3]: 4.31 µM (active)

CN1Cc2c(N)cccc2C(c2ccccc2)C1 (stereo unspecified) [NOMIFENSINE MALEATE]
IC50 [4]: > 66 µM (inactive)
IC50 [5]: > 66 µM (inactive)
IC50 [6]: 8.71 µM (active)
IC50 [7]: 8.36 µM (active)

CCc1ccccc1NC(=O)CN(C)C(=O)CSc1nnc(Nc2cccc(C)c2C)s1
AC50 [2]: 4.79 µM (active)

CN(C)c1ccc(/C=N/NC(=O)/C(O)=C\C2=NC3(CCCC3)Cc3ccccc32)cc1
AC50 [8]: 3.54 µM (active)
CC50 [9]: 25.8 µM (active)
IC50 [6]: 13.2 µM (active)
IC50 [7]: 10.1 µM (active)

O=C(COc1ncnc2c1cnn2-c1ccccc1)Nc1ccc(S(=O)(=O)N2CCCCC2)cc1
AC50 [2]: > 100 µM (inactive)
